Measured values: patent EP4691468A1, “PHARMACEUTICAL COMPOSITION FOR TREATING INFLAMMATORY BOWEL DISEASE” (EA Pharma Co., Ltd., priority 2023, dated 2024)
In brackets after ≈: the same amount, converted by molar mass. Several values for one entry are separate records, joined by “and”; a condition that tells them apart may be missing. Identical values can stand only once. Like-named read-outs stand apart in the source and are kept apart here.

Tests used:
MAdCAM-1 = experiment: Ex vivo MAdCAM-1 binding inhibition rate (PD) of lymphocytes in collected blood, flow cytometry; type: cell-based, human
Description: The MAdCAM-1 binding rate of lymphocytes in plasma was measured using a validated measurement method using the obtained blood samples, and the MAdCAM-1 binding inhibition rate of lymphocytes in plasma was calculated using Excel. Specifically, 5 µL of an 80 mM MnCl2 solution was added to 90 µL of heparinized blood and incubated at room temperature for 10 minutes. A volume of 5 µL of 200 µg/mL recombinant human MAdCAM-1/Fc (R&D Systems) was added to make a total volume of 100 µL, and the mixture was incubated at room temperature for 30 minutes. Subsequently, 1900 µL of BD Phosflow Lyse/Fix Buffer 5X (BD Biosciences) was added, and hemolysis and fixation were performed at 37°C for 10 minutes. After centrifugation for 5 minutes, the supernatant was removed, and 2000 µL of RPMI-1640 medium supplemented with 10% inactivated fetal bovine serum (hereinafter referred to as medium) was added. After centrifugation for 5 minutes, the supernatant was removed and washed. After washing again with the medium, 50 µL of Brilliant Stain Buffer (BD Biosciences), 1.25 µL of MAdCAM-1 FITC (Hycult Biotech), 5 µL of CD4 PE (BD Biosciences), 2.5 µL of CD45RO APC (UCHL1) (BioLegend), 5 µL of CD3 BV421 (SK7) (BioLegend), and 2.5 µL of CD45 BV510 (HI30) (BioLegend) were added, and the mixture was incubated for 30 minutes. After washing with Stain Buffer (BSA) (BD Biosciences), the percentage of MAdCAM-1-positive cells among CD3-positive CD4-positive cells was measured using flow cytometry.
The percentage of MAdCAM-1-positive cells among CD3-positive CD4-positive cells was calculated by subtracting each measured value from the measured value when MAdCAM-1/Fc was not added as a control. […]
The MAdCAM-1 binding inhibition rate (PD) of lymphocytes in plasma was evaluated using collected blood, and the correlation with the plasma concentration (PK) of Compound (2) was plotted (Fig. 5).

[1] = for 24-Hour Post-Dose Trough Values of Compound (2) after Repeated Administration / Average Plasma Concentrations of Compound (2) on Day 10 of Repeated Administration: Compound (1) 400 mg once daily L-SEDDS
Description: A phase 1 clinical trial was conducted to evaluate the safety, tolerability, and pharmacokinetics of Compound (1) when orally administered to healthy adult males.
This clinical trial was a single-center, randomized, double-blind, placebo-controlled, single and multiple ascending dose study with the primary objective of evaluating the safety and tolerability of Compound (1) when orally administered to healthy adult males.
The subjects in each cohort consisted of 8 people, of which 6 were assigned to Compound (1) and 2 were assigned to placebo, and they were administered the drug.
Day 8, when repeated administration was started, corresponds to administration day 1 (Day 1), and day 17 corresponds to administration day 10 (Day 10).
The plasma concentration of Compound (2) was measured using a validated measurement method. Specifically, plasma was separated from collected blood and processed, and then the plasma concentration was measured by an LC/MS/MS apparatus.
For twice-daily administration of C-SEDDS, blood was further collected at 13, 14, 14.5, and 16 hours later to quantify Compound (2).

[2] = plasma concentration, MAdCAM-1-positive cells among CD3-positive CD4-positive cells, ex vivo blood of healthy adult males
[3] = Measured Value, Repeated, Once daily, 400/L-SEDDS, day 10

Question: Which “correlation of MAdCAM-1 binding inhibition rate (PD) with plasma concentration (PK)” value (MAdCAM-1; collected blood, Fig. 5) does the source give for `Cc1cc(=O)n(-c2ccc(C[C@H](NC(=O)c3cc(F)c(NS(=O)(=O)c4ccc(NC(=O)C(C)(C)C)cc4)cc3F)C(=O)O)cn2)c(=O)n1C` [Compound (2)] here?
Answer: correlated

Question: And the “IC50 (concentration that causes 50% binding inhibition)” value (MAdCAM-1; [2])?
Answer: 1.9 ng/mL (≈ 2.72 nM)

Question: And the “IC90 (concentration that causes 90% binding inhibition)” value (MAdCAM-1; [2])?
Answer: 6.9 ng/mL (≈ 9.88 nM)

Question: What about the “24-Hour Post-Dose Trough Values of Compound (2) after Repeated Administration” value (“24-Hour Post-Dose Trough Values” for short) ([1]; Day 1) of the same compound?
Answer: 5.092 ng/mL

Question: What about the “24-Hour Post-Dose Trough Values” value ([1]; Day 2) of the same compound?
Answer: 10.90 ng/mL

Question: And the “24-Hour Post-Dose Trough Values” value ([1]; Day 3)?
Answer: 10.60 ng/mL

Question: And the “24-Hour Post-Dose Trough Values” value ([1]; Day 4)?
Answer: 14.21 ng/mL

Question: What about the “24-Hour Post-Dose Trough Values” value ([1]; Day 5) of the same compound?
Answer: 19.56 ng/mL

Question: What about the “24-Hour Post-Dose Trough Values” value ([1]; Day 6) of the same compound?
Answer: 17.27 ng/mL

Question: What about the “24-Hour Post-Dose Trough Values” value ([1]; Day 7) of the same compound?
Answer: 19.85 ng/mL

Question: And the “24-Hour Post-Dose Trough Values” value ([1]; Day 8)?
Answer: 22.03 ng/mL

Question: And the “24-Hour Post-Dose Trough Values” value ([1]; Day 9)?
Answer: 22.80 ng/mL

Question: What about the “24-Hour Post-Dose Trough Values” value ([1]; Day 10) of the same compound?
Answer: 13.04 ng/mL

Question: And the “Average Plasma Concentrations of Compound (2) on Day 10 of Repeated Administration” value (“Average Plasma Concentrations” below) ([1]; Day 10, Time 0.5 h)?
Answer: 23.82 ng/mL

Question: And the “Average Plasma Concentrations” value ([1]; Day 10, Time 1 h)?
Answer: 43.52 ng/mL

Question: What about the “Average Plasma Concentrations” value ([1]; Day 10, Time 1.5 h) of the same compound?
Answer: 44.71 ng/mL

Question: What about the “Average Plasma Concentrations” value ([1]; Day 10, Time 2 h) of the same compound?
Answer: 40.35 ng/mL

Question: What about the “Average Plasma Concentrations” value ([1]; Day 10, Time 2.5 h) of the same compound?
Answer: 34.19 ng/mL

Question: And the “Average Plasma Concentrations” value ([1]; Day 10, Time 3 h)?
Answer: 32.09 ng/mL

Question: And the “Average Plasma Concentrations” value ([1]; Day 10, Time 4 h)?
Answer: 28.31 ng/mL

Question: What about the “Average Plasma Concentrations” value ([1]; Day 10, Time 5 h) of the same compound?
Answer: 25.14 ng/mL

Question: And the “Average Plasma Concentrations” value ([1]; Day 10, Time 6 h)?
Answer: 17.77 ng/mL

Question: What about the “Average Plasma Concentrations” value ([1]; Day 10, Time 7 h) of the same compound?
Answer: 14.77 ng/mL

Question: And the “Average Plasma Concentrations” value ([1]; Day 10, Time 8 h)?
Answer: 13.57 ng/mL

Question: And the “Average Plasma Concentrations” value ([1]; Day 10, Time 12 h)?
Answer: 16.86 ng/mL

Question: What about the “Average Plasma Concentrations” value ([1]; Day 10, Time 15 h) of the same compound?
Answer: 11.33 ng/mL

Question: What about the “Average Plasma Concentrations” value ([1]; Day 10, Time 21 h) of the same compound?
Answer: 15.69 ng/mL

Question: What about the “Average Plasma Concentrations” value ([1]; Day 10, Time 24 h) of the same compound?
Answer: 13.04 ng/mL

Question: And the “24-Hour Post-Dose Trough Values” value ([1]; Initial Value)?
Answer: 0.000 ng/mL

Question: And the “increase of plasma concentration (trough value) after 24 hours on the 10th day of repeated administration” value ([1]; L-SEDDS 400 mg once daily, versus single-dose administration)?
Answer: more than threefold

Question: What about the “Judgment Trough Value” [1, 3] of the same compound?
Answer: A (IC90 (6.9 ng/mL) or higher)

Question: What about the “Plasma Concentration Trough Value” [1, 3] of the same compound?
Answer: 13.04 ng/mL and 13.0 ng/mL
